# Peptide text beside a SMILES is read from it.
# Experiments:
# [1] = system: human peripheral blood mononuclear cells (MCP-1); assay: MCP-1 chemokine production by ELISA; type: cell-based; conditions: 24 hours of stimulation; lowest peptide concentration 20 μg/ml
# Protocol: FIG. 19. High production of anti-infective chemokine MCP-1 by human peripheral blood mononuclear cells treated with peptides, as determined by ELISA after 24 hours of stimulation.
# Venous blood (20 ml) from healthy volunteers was collected in Vacutainer® collection tubes containing sodium heparin as an anticoagulant (Becton Dickinson, Mississauga, ON) in accordance with UBC ethical approval and guidelines. Blood was diluted 1:1 with complete RPMI 1640 medium and separated by centrifugation over a Ficoll-Paque® Plus (Amersham Biosciences, Piscataway, N.J., USA) density gradient. White blood cells were isolated from the buffy coat, washed twice in RPMI 1640 complete medium, and the number of peripheral blood mononuclear cells (PBMC) was determined by Trypan blue exclusion. PBMC (5×10^5) were seeded into 12-well tissue culture dishes (Falcon; Becton Dickinson) at 0.75 to 1×10^6 cells/ml at 37° C. in 5% CO2. The above conditions were chosen to mimic conditions for circulating blood monocytes entering tissues at the site of infection via extravasation.
# Following incubation of the cells under various treatment regimens, the tissue culture supernatants were centrifuged at 1000×g for 5 min, then at 10,000×g for 2 min to obtain cell-free samples. Supernatants were aliquoted and then stored at −20° C. prior to assay for various chemokines by capture ELISA (eBioscience and BioSource International Inc., CA, USA respectively)
# [2] = system: human PBMC (MCP-1); assay: synergy with poly(I:C) to increase MCP-1 production; type: cell-based; conditions: 10 μg/ml peptide with 20 μg/ml poly(I:C)
# Protocol: FIG. 21. Ability of 10 μg/ml of peptides in combination with 20 or 5 μg/ml of the known adjuvant poly inosine:cytosine [poly(I:C)] to synergize to increase MCP-1 production, a known adjuvant property [see Kindrachuk, J., H. Jenssen, M. Elliott, R. Townsend, A. Nijnik, S. F. Lee, V. Gerdts, L. A. Babiuk, S. A. Halperin and R. E. W. Hancock. 2009. A novel vaccine adjuvant comprised of a synthetic innate defence regulator peptide and CpG oligonucleotide links innate and adaptive immunity. Vaccine 27:4662-4671].
# It is well accepted that vaccine immunization is best achieved by co-adminstration of an adjuvant. The precise mechanism by which these adjuvants work has eluded immunologists but appears to work in part by upregulating elements of innate immunity that smooth the transition to adaptive (antigen-specific) immunity (Bendelac A and R. Medzhitov. 2002. Adjuvants of immunity: Harnessing innate immunity to promote adaptive immunity J. Exp. Med. 195:F19-F23). Within this concept there are several possible avenues by which adjuvants might work including the attraction of immune cells into the site at which a particular antigen is injected, through e.g. upregulation of chemokines, the appropriate activation of cells when they reach that site, which can be caused by local cell or tissue damage releasing endogenous adjuvants or through specific cell activation by the adjuvants, and the compartmentalization of immune responses to the site of immunization (the so-called “depot” effect). […] 2010. Immunomodulators as adjuvants for vaccines and antimicrobial therapy. Ann. NY Acad. Sci. 1213:46-61].
# [3] = system: human PBMC (TNFα); assay: LPS-induced TNFα production by ELISA; type: cell-based; conditions: P. aeruginosa LPS, 24 hr
# Protocol: FIG. 20. Ability of peptides to knockdown pro-inflammatory cytokine TNFα production by human PBMCs in response to bacterial LPS treatment as determined by ELISA after 24 hours.
# LPS from P. aeruginosa strain H103 was highly purified free of proteins and lipids using the Darveau-Hancock method. Briefly, P. aeruginosa was grown overnight in LB broth at 37° C. Cells were collected and washed and the isolated LPS pellets were extracted with a 2:1 chloroform:methanol solution to remove contaminating lipids. Purified LPS samples were quantitated using an assay for the specific sugar 2-keto-3-deoxyoctosonic acid (KDO assay) and then resuspended in endotoxin-free water (Sigma-Aldrich).
# Human PBMC were obtained as described above and treated with P. aeruginosa LPS (10 or 100 ng/ml) with or without peptides for 24 hr after which supernatants were collected and TNFα assessed by ELISA.
# [4] = system: Klebsiella pneumoniae (Kp) biofilm; type: cell-based; conditions: peptide 10 μg/ml
# Protocol: (§1) Methods of assessment of anti-biofilm activity—Biofilm formation was initially analyzed using a static abiotic solid surface assay as described elsewhere (de la Fuente-Nunez et al., 2012). Dilutions (1/100) of overnight cultures were incubated in BM2 biofilm-adjusted medium [62 mM potassium phosphate buffer (pH 7), 7 mM (NH4)2SO4, 2 mM MgSO4, 10 μM FeSO4, 0.4% (wt/vol) glucose, 0.5% (wt/vol) Casamino Acids], or a nutrient medium such as Luria Broth, in polypropylene microtiter plates (Falcon, United States) in the absence (control) or presence of peptide. Peptide was added at time zero (prior to adding the diluted, overnight cultures) in varying concentrations, and the decrease in biofilm formation was recorded at 22-46 h for most bacteria. Planktonic cells were removed, biofilm cells adhering to the side of the tubes were stained with crystal violet, and absorbance at 595 nm was measured using a microtiter plate reader (Bio-Tek Instruments Inc., United States). Some peptides were screened against two Gram negative organisms, P. aeruginosa and K. pneumoniae using a Bioflux apparatus (AutoMate Scientific, Berkeley, Calif.; http://www.autom8.com/bioflux_biofilm.html), which allows for the high-throughput, real-time analysis of biofilms.
# [5] = system: Pseudomonas aeruginosa (Pa) biofilm; assay: static abiotic solid surface (microtiter, crystal violet) / Bioflux biofilm inhibition screen; type: cell-based; conditions: peptide 10 μg/ml
# Protocol: FIG. 1. Identification of new anti-biofilm peptides active against P. aeruginosa using the microtiter plate screening method with crystal violet staining. […] As a control peptide 1037 was utilized [de la Fuente Nunez et al. 2011].
# as §1
# [6] = system: P. aeruginosa biofilms; conditions: biofilms
# Protocol: Peptides and various conventional antibiotics were analyzed by checkerboard titration into microtiter trays using CLSI methods (Wiegand, I., K. Hilpert, and R. E. W. Hancock. 2008. Nature Protocols 3:163-175), bacteria added and, after overnight incubation at 37° C., the residual biofilm assessed by the crystal violet method mentioned in the body of the grant, with an A595 of 0.2 considered as 100% biofilm inhibition. The effects of the peptide in reducing the minimal biofilm inhibitory concentration (MBIC) of the antibiotic and vice versa were assessed using the Fractional Inhibitory Concentration (FIC) method whereby ΣFTC=FICA+FICB=(CA/MICA)+(CB/MICB), where MBICA and MBICB are the MBICs of peptide A and antibiotic B alone, respectively, and CA and CB (expressed in μg/ml) are the MICs of the drugs in combination. This conventional clinical microbiology assay is interpreted as follows
# [7] = system: Pseudomonas aeruginosa PA14 and PAO1 and Burkholderia cenocepacia; assay: swarming and surfing motility; type: cell-based
# Source text: Motility is strongly involved in the virulence of bacteria since it plays an important role in the attachment of bacteria to surfaces, including those in the body and on indwelling medical devices, and in colonization of these surfaces and biofilm formation. P. aeruginosa is known to utilize at least 4 different types of motility: (a) flagellum-mediated swimming in aqueous environments and at low agar concentrations (<0.3% agar), (b) type IV pilus-mediated twitching on solid surfaces or interfaces, (c) swarming on semi-solid media (0.5-0.7% agar) in poor nitrogen (N) sources such as amino acids (AA) and (d) surfing on low agar concentrations containing mucin.
# Swarming motility is a social phenomenon (a complex adaptation) involving the coordinated and rapid movement of bacteria across a semi-solid (viscous) surface, and is widespread among flagellated pathogenic bacteria. […]
# This was independent of bacterial killing (antimicrobial peptide action measured by MIC) since these peptides were able to inhibit the swarming of Burkholderia cenocepacia, which as mentioned above is completely resistant to all cationic antimicrobial peptides due to its altered outer membrane.
Molecule,MCP-1 induction [1],synergy with poly(I:C) in MCP-1 production [2],suppression of LPS-induced TNFα [3],% Biofilm Inhibition Kp [4] [%],% Biofilm Inhibition Pa [5] [%],other results
CC[C@H](C)[C@H](NC(=O)[C@@H](NC(=O)[C@H](CCCNC(=N)N)NC(=O)[C@H](C)NC(=O)[C@@H](NC(=O)[C@H](CCCNC(=N)N)NC(=O)[C@H](CCCCN)NC(=O)[C@H](Cc1ccccc1)NC(=O)[C@@H](N)CCCNC(=N)N)C(C)C)C(C)C)C(=O)N[C@@H](Cc1c[nH]c2ccccc12)C(N)=O [HE12] (H-RFKRVARVIW-NH2; N-terminus assumed),clearly superior to peptide 1018,showed synergy,strongly suppressed,–,–,–
CC[C@H](C)[C@H](NC(=O)[C@H](CC(C)C)NC(=O)[C@H](CCCNC(=N)N)NC(=O)[C@@H](N)C(C)C)C(=O)N[C@@H](Cc1c[nH]c2ccccc12)C(=O)N[C@@H](C)C(=O)N[C@H](C(=O)N[C@@H](CCCNC(=N)N)C(=O)N[C@H](C(=O)N[C@@H](Cc1c[nH]c2ccccc12)C(=O)N[C@@H](CCCNC(=N)N)C(=O)N[C@@H](CCCNC(=N)N)C(N)=O)[C@@H](C)CC)C(C)C [HE4] (H-VRLIWAVRIWRR-NH2; N-terminus assumed),clearly superior to peptide 1018,showed synergy,strongly suppressed,–,–,–
"CC[C@H](C)[C@H](N)C(=O)N[C@@H](CC(C)C)C(=O)N[C@@H](CCCNC(=N)N)C(=O)N[C@@H](Cc1c[nH]c2ccccc12)C(=O)N1CCC[C@H]1C(=O)N[C@@H](Cc1c[nH]c2ccccc12)C(=O)N1CCC[C@H]1C(=O)N[C@@H](Cc1c[nH]c2ccccc12)C(=O)N[C@@H](CCCNC(=N)N)C(=O)N[C@@H](CCCNC(=N)N)C(=O)N[C@@H](CCCCN)C(N)=O [MX226, reference compound] (H-ILRWPWPWRRK-NH2; N-terminus assumed)",–,–,–,18,18,–
CC[C@@H](C)[C@@H](NC(=O)[C@@H](C)NC(=O)[C@@H](CCCNC(=N)N)NC(=O)[C@@H](Cc1c[nH]c2ccccc12)NC(=O)[C@@H](CCC(N)=O)NC(=O)[C@H](N)C(C)C)C(=O)N[C@H](CCCNC(=N)N)C(=O)N[C@@H](C(=O)N[C@H](CCCNC(=N)N)C(=O)N[C@@H](C(=O)N[C@@H](C(=O)N[C@H](CCCNC(=N)N)C(N)=O)[C@H](C)CC)C(C)C)C(C)C [DJK5],–,–,–,99.8,99.7,MIC for complete inhibition of Pseudomonas aeruginosa [6]: 1 µg/mL; Minimal Biofilm Inhibitory Concentration (MBIC) [6]: 0.5 µg/mL
CC[C@H](C)[C@H](NC(=O)[C@H](CCCNC(=N)N)NC(=O)[C@@H](NC(=O)[C@@H](NC(=O)[C@H](CC(C)C)NC(=O)[C@H](CCCNC(=N)N)NC(=O)[C@@H](N)C(C)C)[C@@H](C)CC)C(C)C)C(=O)N[C@@H](Cc1c[nH]c2ccccc12)C(=O)N[C@@H](CCCNC(=N)N)C(=O)N[C@@H](CCCNC(=N)N)C(N)=O [HE10] (H-VRLIVRIWRR-NH2; N-terminus assumed),clearly superior to peptide 1018,showed synergy,strongly suppressed,–,–,–
polymyxin B,–,–,–,–,–,swarming motility ([7]; low concentrations): does not have anti-swarming or anti-surfing activity; surfing motility ([7]; mucin-containing plates): does not have anti-swarming or anti-surfing activity

# Reference: US20190315823A1, “SMALL CATIONIC ANTI-BIOFILM AND IDR PEPTIDES” (priority 2013, published 2019)
